Data from patent US10647677B2, “Analogues of hydroxychloroquine (HCQ) without retinal toxicity” (Inoviem Scientific, priority 2015, dated 2020).
“Also recorded” adds a separate entry of the source. Like-named read-outs stand apart in the source and are kept apart here.

Tests used:
[1] = tested on: C57Bl/6 mice, pulmonary vasculitis induced by immune complexes; assay: Pulmonary vasculitis induced by immune complexes: histological analysis of lung sections; type: in vivo; conditions: per os before induction; HCQ 10 mg/kg, CB137 10, 30 or 100 mg/kg (FIG. 6)
Experimental: (§1) Female C57Bl/6 strain mice from the Jackson Laboratory, 8-10 weeks old and weighing about 20 g, are used in all experiments. The mice are maintained at a temperature of 23° C.±1° C. with 12-hour light/dark cycle. Mice have access to water and food ad libitum and are housed at least one week before the beginning of any experiments.
A retro-orbital blood sampling was performed using capillaries containing heparin on mice anesthetized with isoflurane the day before the manipulation. The next day, the mice were anesthetized with a mixture of ketamine and xylasin (90 mg/kg and 125 mg/kg, respectively). The immune IgG complex is induced in the lungs by intratracheal instillation of 0.5 mg of anti-BSA rabbit antibody (MP Biomedicals, Strasbourg, France) and by the administration of 0.5 mg per mouse of BSA antigen in the caudal vein (Warner et al., 2001 and Warren et al., 1989). The specified treatment (PF-1355, CB137 or solvent alone) is administered enterally. The animals are euthanized 4 hours after intratracheal instillation. […]
The lung sections are examined under a light microscope (Axio LabA1 by Zeiss brand) to assess the intensity of the neutrophil influx and the level of hemorrhage, and to identify the structural alterations. A minimum of 10 fields at 400× magnification is analyzed per animal. […]

[2] = tested on: C57Bl/6 mice, pulmonary vasculitis induced by immune complexes; assay: Pulmonary vasculitis induced by immune complexes: neutrophils in bronchoalveolar lavages (flow cytometry); type: in vivo; conditions: HCQ 10 mg/kg, CB137 10, 30 and 100 mg/kg, 4 hours after instillation, compared to control + (FIG. 5)
Experimental: as §1
A retro-orbital blood sampling was performed using capillaries containing heparin on mice anesthetized with isoflurane the day before the manipulation. The next day, the mice were anesthetized with a mixture of ketamine and xylasin (90 mg/kg and 125 mg/kg, respectively). The immune IgG complex is induced in the lungs by intratracheal instillation of 0.5 mg of anti-BSA rabbit antibody (MP Biomedicals, Strasbourg, France) and by the administration of 0.5 mg per mouse of BSA antigen in the caudal vein (Warner et al., 2001 and Warren et al., 1989). The specified treatment (PF-1355, CB137 or solvent alone) is administered enterally. The animals are euthanized 4 hours after intratracheal instillation.
The animals are euthanized 4 hours after the intratracheal instillation by a lethal injection of pentobarbital. A submandibular blood sample is taken. […] The total number of cells, excluding any residual red cells and dead cells stained with trypan blue, is determined under the light microscope on a Malassez cell. […]

αB-crystalline (αB-C) = molecular target: T1, αB-crystalline (αB-C) (Homo sapiens, UniProt P02511); assay: Surface plasmon resonance (Biacore 3000) affinity on αB-crystalline; type: binding; conditions: SPR at 25° C., read-out: Kd (M) on crystallin
T1 construct: purchased
T1 sequence (P02511 1-175): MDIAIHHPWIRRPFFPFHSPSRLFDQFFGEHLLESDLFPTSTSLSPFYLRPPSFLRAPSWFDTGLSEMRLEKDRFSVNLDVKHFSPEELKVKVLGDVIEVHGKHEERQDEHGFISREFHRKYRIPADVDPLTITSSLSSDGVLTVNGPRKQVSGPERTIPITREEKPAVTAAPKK
Experimental: Using the surface plasmon resonance technology (Biacore 3000), the interaction constants between HCQ analogues (HCQa) and myeloperoxidase (MPO) targets and αB-crystalline (αB-C) were measured at 25° C. according to 12 different series of experiments. First, HCQ analogues at five different concentrations (10^−6 to 10^−8 M) were injected at a rate of 10^−6 L/min for 250 s on the MPO and αB-C targets as well as on the ERK1 and ERK2 controls, followed by a dissociation phase of 150 s.
The kinetic parameters were measured using the BIAevaluation 4.1 software. The set of resonance unit values obtained with the controls were subtracted from those obtained with MPO and αB-C to compensate for non-specific bonds.
The differences in Kd values for the myeloperoxidase (MPO) and αB-crystalline (αB-C) enzymes in Tables 1 and 2 are due to the variability of commercial batches. Nevertheless, the difference between the Kd of the compounds HCQ and CB137 remains identical according to these two tests.
Analysis of the compounds in the form of sulphate salts according to the method described above: […]

[3] = Table 2, compounds in the form of sulphate salts

SMILES	inhibition of pulmonary vasculitis / pulmonary inflammation induced by immune complexes (lung sections) [1]	amount of neutrophils in bronchoalveolar lavages / lungs [2]	Kd (αB-crystalline (αB-C); Table 1) [M]	Kd (αB-crystalline (αB-C); [3]) [M]
CCN(CCO)CCCC(C)Nc1c(Cl)cnc2cc(Cl)ccc12 (centres unmarked) [CB137]	inhibiting pulmonary vasculitis; also recorded: limits pulmonary inflammation	decreases the amount of neutrophils	1.75e-07	3e-05
CCN(CCO)CCCC(C)Nc1ccnc2cc(Cl)ccc12 (centres unmarked) [Commercial HCQ, hydroxychloroquine]	inhibiting pulmonary vasculitis	slightly increase the amount of neutrophils	2.2e-08	1e-06
